Legend:
[1] = tested on: cellular ATP production in PF T. brucei; assay: ATP monitoring in live PF cells (proline as sole carbon source, bioluminescence); format: cell-based, Trypanosoma brucei; details: 2 h, normalised to no inhibitor control
Description: We first set out to determine if B-THP-T compounds affected cellular ATP levels. PF T. brucei were incubated in buffered PBS with/without proline as the sole carbon source and various inhibitors for 2 h. Cells were harvested and their ATP content was determined by bioluminescence assay. Two ETC inhibitors were used as positive control: malonate is a competitive inhibitor of mitochondrial complex II and prevents the […] of succinate to fumarate and entry of electrons to the ETC; and antimycin A (AA) is a mitochondrial complex III inhibitor, which prevents the transfer of electrons to cytochrome c and ubiquinone recycling. […] Compound 1 inhibited ATP production in a dose-response manner to similar levels (by 55 ± 6%), supporting the hypothesis from pull-down data that its target is involved in the ATP production pathway from proline.
Fig 4 B-THP-Ts decrease cellular ATP levels. PF T. brucei cells were incubated in buffered PBS with/without proline (as sole carbon source) and various inhibitors (concentrations indicated) incubated for 2 h, after which cells were harvested and cellular ATP levels were monitored by bioluminescence assay. Key: NS, no substrate; NI, no inhibitor control; Malonate (complex II inhibitor) AA, antimycin A (AA, complex III inhibitor). Background relative light units (RLU) were subtracted from measurements and % ATP production normalised to the no inhibitor control. Data were averaged from two independent experiments, each performed in duplicate (n = 4). Error bars show standard deviations. […]
Effects of compounds on proline metabolism were determined using a methodology adapted from Podolec et al. Briefly, glucose-free-conditioned PF T. brucei cells were washed into buffered PBS and incubated in 200 μl volumes with inhibitors for 10 min. […] Supernatants containing metabolic end-products and citrate standard were analysed to evaluate effects on proline metabolism (see below), while the ATP content of cells was determined as follows. […] ATP content was determined as above.

T. brucei PF = assay: Toxicity (EC50, cell viability) in procyclic form T. brucei; format: cell-based; details: Trypanosoma brucei, live cells, 72 h incubation, footnote a
Source text: (§1) Fig 1 Labelling and detection of B-THP-T target(s). (A) Structures of chamuvarinin and simplified analogues thereof as probes used in this study and their respective toxicity in selected cell lines. Bi-functional compound 3 contains a diazirine (blue) to cross-link the compound to its target and an alkyne handle (red) to which an azide-containing reporter probe can be added. Mono-functional compound 2 contains the diazirine to cross-link to its target but lacks the alkyne handle and cannot be appended with an azide reporter probe. Lead B-THP-T, compound 1, lacks both diazirine and alkyne. The additional functional groups on compounds 2 and 3 are minor alterations, which have little effect on inhibitor potency. (B) Overview of the in vivo pulse-chase photo-affinity labelling procedure. B-THP-T were incubated with live PF T. brucei cells and trafficked to their targets. Following UV-irradiation, only compounds containing a diazirine (i.e. compounds 2 and 3) could cross-link with target proteins. The subsequent “click reaction” appended the conjugated B-THP-T with a reporter probe as long as an alkyne handle was present (i.e. on compound 3). Refer to the experimental section for details. (C) Detection of Cy5.5-tagged proteins following photo-affinity labelling. Proteins were separated by SDS-PAGE and conjugated Cy5.5 was detected at 700 nm. Lanes 1–3 correspond to usage of compounds 1–3 respectively. Several proteins in lane 3 were conjugated with Cy5.5 via labelling with bi-functional compound 3. […]
The potency of lead B-THP-T, compound 1, was determined against oxidative phosphorylation in dose-response assays in digitonin-permeabilised PF T. brucei.
Supplementary file pntd.0005886.s001.tiff: S1 Fig Dose-response of B-THP-T compounds in PF T. brucei. EC50 values were determined for compounds 1–3 in PF T. brucei. […]

T. brucei BSF = assay: Toxicity (EC50) in bloodstream form T. brucei; format: cell-based, Trypanosoma brucei
Source text: as §1

HeLa = assay: Toxicity (EC50) in HeLa cells; format: cell-based; details: Homo sapiens, footnote b, read-out: EC50 values Mammal HeLa
Source text: Fig 1 Labelling and detection of B-THP-T target(s). (A) Structures of chamuvarinin and simplified analogues thereof as probes used in this study and their respective toxicity in selected cell lines. Bi-functional compound 3 contains a diazirine (blue) to cross-link the compound to its target and an alkyne handle (red) to which an azide-containing reporter probe can be added. Mono-functional compound 2 contains the diazirine to cross-link to its target but lacks the alkyne handle and cannot be appended with an azide reporter probe. Lead B-THP-T, compound 1, lacks both diazirine and alkyne. The additional functional groups on compounds 2 and 3 are minor alterations, which have little effect on inhibitor potency. (B) Overview of the in vivo pulse-chase photo-affinity labelling procedure. B-THP-T were incubated with live PF T. brucei cells and trafficked to their targets. Following UV-irradiation, only compounds containing a diazirine (i.e. compounds 2 and 3) could cross-link with target proteins. The subsequent “click reaction” appended the conjugated B-THP-T with a reporter probe as long as an alkyne handle was present (i.e. on compound 3). Refer to the experimental section for details. (C) Detection of Cy5.5-tagged proteins following photo-affinity labelling. Proteins were separated by SDS-PAGE and conjugated Cy5.5 was detected at 700 nm. […]

SMILES	Inhibition of cellular ATP production [1] [%]	EC50 (T. brucei PF) [µM]	Selectivity towards T. brucei over mammalian HeLa cells (T. brucei BSF; from EC50 values of Fig 1)	EC50 (HeLa) [µM]	EC50 (T. brucei BSF; Trypanosoma brucei, bloodstream form, footnote b) [µM]
CCCCCC[C@H]1CCC[C@@H](Cn2cc([C@@H]3CCC[C@H](CCCCO)O3)nn2)O1 [Compound 1]	55 ± 6	8.4	only modest selectivity	–	–
C#CCNC(=O)CCC[C@H]1CC2(C[C@@H](Cn3cc([C@@H]4CCC[C@H](CCCCOCc5ccccc5)O4)nn3)O1)N=N2 [Compound 3]	–	16.1 ± 0.6	–	21.3 ± 2	13 ± 1
O=C(O)CC(=O)O [malonate]	62 ± 15	–	–	–	–
CCCCCC[C@H]1C(=O)O[C@H](C)[C@H](NC(=O)c2cccc(NC=O)c2O)C(=O)O[C@@H](C)[C@@H]1OC(=O)CC(C)C [antimycin A]	71 ± 9	–	–	–	–

— publication PMC5608556, “Photo-affinity labelling and biochemical analyses identify the target of trypanocidal simplified natural product analogues” (PLoS Neglected Tropical Diseases, 2017)
